Measurements taken from patent publication US9096539B2, “Substituted 4,5-dihydro-2H-benzo[e]indazole-9-carboxylates for the treatment of diabetes and related disorders” (Council of Scientific & Industrial Research, priority 2012, dated 2015).

Tested on: sucrose challenged STZ induced diabetic rats
Assay: Antihyperglycaemic activity in sucrose challenged streptozotocin (STZ)-induced diabetic rats (STZ-S)
Format: in vivo, rat
Details: compounds 100 mg/kg, Januvia 50 mg/kg; for % Antihyperglycaemic activity STZ-S 0-5 h AUC / % Antihyperglycaemic activity STZ-S 0-24 h AUC: oral; for Blood Glucose Profile 0 min (Pre treatment): 0 min pre treatment (fasting baseline)
Description: The test compounds and standard antidiabetic drug Januvia were prepared in 1.0% freshly prepared Gum acacia. Assessment of Test Compounds for Antihyperglycaemic Activity in Sucrose Challenged Streptozotocin STZ-Induced Diabetic Rats— Induction of Diabetes in Rats: Overnight starved male albino rats of Sprague Dawley strain were used and Diabetes was induced in the animals by single intraperitoneal injection of Streptozotocin at 60 mg/kg body weight dose prepared in 0.1M citrate buffer (pH 4.5). Fasting blood glucose level was measured by using a Glucometer (ACCU-CHEK II; […] Grouping and Treatment: […] All the diabetic animals were again divided into groups with five animals in each group. Animals of one group were regarded as the control group (orally administered 1% gum acacia) and the others were treated as the experimental groups. […] Animals of the control group were given an equal amount of 1.0% gum acacia. The standard antidiabetic drug Januvia was given to the animals at an oral dose of 50 mg/kg body weight. […] Food but not water was withheld from the cages during the course of experimentation. Percent hyperglycemic activity was determined by comparing the AUC (area under curve) of experimental groups with that of the vehicle treated control group. Quantitative glucose tolerance of each animal was calculated by the area under the curve (AUC) method using Prism Software. The area under the curve of the control group and the experimental group was compared to determine the percent antihyperglycaemic activity. Statistical comparisons were performed by one-way analysis of variance (ANOVA), followed by Dunnett's multiple range test (DMRT). […] Results were expressed as mean±SEM.

Compound | % Antihyperglycaemic activity STZ-S 0-5 h AUC [%] | % Antihyperglycaemic activity STZ-S 0-24 h AUC [%] | Blood Glucose Profile 0 min (Pre treatment) [mg/dL] | Blood Glucose Profile 30 min (Post treatment) [mg/dL] | Blood Glucose Profile 60 min (Post treatment) [mg/dL] | Blood Glucose Profile 90 min (Post treatment) [mg/dL] | Blood Glucose Profile 120 min (Post treatment) [mg/dL] | Blood Glucose Profile 180 min (Post treatment) [mg/dL] | Blood Glucose Profile 240 min (Post treatment) [mg/dL] | Blood Glucose Profile 300 min (Post treatment) [mg/dL] | Blood Glucose Profile 1440 min (Post treatment) [mg/dL]
COC(=O)c1c(SC)cc(-c2cccc3ccccc23)c2c1-c1cn(-c3ccccc3)nc1CC2 [compound 6, methyl 8-(methylthio)-6-(naphthalen-1-yl)-2-phenyl-4,5-dihydro-2H-benzo[e]indazole-9-carboxylate] | 29.7 | 25.7 | 222.6 ± 6.55 | 442.1 ± 18.2 | 520.0 ± 10.3 | 464.0 ± 14.4 | 399.3 ± 14.0 | 334.0 ± 13.4 | 301.6 ± 18.8 | 277.0 ± 10.1 | 405.0 ± 17.6
COC(=O)c1c(SC)cc(-c2ccc(C)cc2)c2c1-c1cn(-c3ccccc3)nc1CC2 [compound 5, methyl 8-(methylthio)-2-phenyl-6-p-tolyl-4,5-dihydro-2H-benzo[e]indazole-9-carboxylate] | 20.4 | 23.6 | 222.3 ± 9.39 | 515.6 ± 15.5 | 528.6 ± 14.4 | 506.5 ± 14.0 | 459.6 ± 11.2 | 402.1 ± 5.58 | 332.5 ± 15.6 | 284.3 ± 16.9 | 411.1 ± 13.6
